Results taken from ChEMBL document CHEMBL2203126, “Diazine indole acetic acids as potent, selective, and orally bioavailable antagonists of chemoattractant receptor homologous molecule expressed on Th2 cells (CRTH2) for the treatment of allergic inflammatory diseases” (J Med Chem, 2012).
≈ marks a conversion by molar mass, not a printed value.

Tests used:
[1] = Dissociation constant, pKa of the compound; format: physicochemical
[2] = target: T1, Prostaglandin D2 receptor 2 (Homo sapiens, UniProt Q9Y5Y4); test: biochemical
T1 sequence (Q9Y5Y4 whole entry): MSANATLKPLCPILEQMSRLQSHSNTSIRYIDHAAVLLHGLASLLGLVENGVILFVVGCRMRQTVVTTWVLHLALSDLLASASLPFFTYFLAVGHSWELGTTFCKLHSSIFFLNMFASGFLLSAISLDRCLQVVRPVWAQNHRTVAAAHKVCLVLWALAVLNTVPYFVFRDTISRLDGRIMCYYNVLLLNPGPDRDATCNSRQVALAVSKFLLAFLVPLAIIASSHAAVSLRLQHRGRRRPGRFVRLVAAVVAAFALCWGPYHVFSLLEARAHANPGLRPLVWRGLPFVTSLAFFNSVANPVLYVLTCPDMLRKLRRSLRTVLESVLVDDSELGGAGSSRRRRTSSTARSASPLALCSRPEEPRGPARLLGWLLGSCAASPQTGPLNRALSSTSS
Description: (§1) Displacement of [3H]PGD2 from recombinant human CRTH2 receptor expressed in CHO-K1 cells after 30 min by FRET method

[3] = Clearance in mouse plasma at 2 mg/kg, iv; format: ADME, organism-based; parameters: dose 2 mg/kg, route intravenous
physchem = conditions: buffer, pH 6.6
Description: Aqueous solubility of the compound at pH 6.6

[4] = Oral bioavailability in mouse at 10 mg/kg; format: ADME, organism-based; conditions: in vivo
Eosinophil = test: cells; conditions: Homo sapiens, Blood, 10 min
Description: Inhibition of eosinophil shape change in human whole blood after 10 mins by flow cytometric assay

[5] = Cmax in mouse at 10 mg/kg, po; format: ADME, organism-based; parameters: dose 10 mg/kg, route oral; conditions: in vivo
[6] = Volume of distribution at steady state in mouse at 2 mg/kg, iv; format: ADME, organism-based; parameters: dose 2 mg/kg, route intravenous; conditions: in vivo, read-out: Vdss
in vitro [7] = conditions: human, plasma
Description: Plasma protein binding in human

[8] = Half life in mouse at 2 mg/kg, iv; format: ADME, organism-based; parameters: dose 2 mg/kg, route intravenous; conditions: in vivo
in vitro [9] = conditions: human, Caco-2, pH 6.2
Description: Apparent permeability in human Caco2 cells at pH 6.2/7.4

in vivo [10] = conditions: rat, po, 10 mg/kg
in vivo [11] = conditions: rat, po, 10 mg/kg; remark: listed apart in the source
Mus musculus = species: Mus musculus; test: animal or person; conditions: Ear, po, read-out: INH
in vivo [12] = conditions: rat, iv, 2 mg/kg
Description: Volume of distribution at steady state in rat at 2 mg/kg, iv

in vivo [13] = conditions: rat, iv, 2 mg/kg; remark: listed apart in the source
Description: Half life in rat at 2 mg/kg, iv

in vivo [14] = conditions: rat, plasma, iv, 2 mg/kg
Description: Clearance in rat plasma at 2 mg/kg, iv

[15] = Effective permeability across human Caco2 cells; format: ADME, cell-based; conditions: Caco-2, read-out: Peff
[16] = Clearance in mouse; format: ADME, organism-based; conditions: in vivo
[17] = Half life in mouse liver microsomes; format: ADME, Microsome
[18] = Oral bioavailability in mouse; format: ADME, organism-based; conditions: in vivo
[19] = target: T1, Prostaglandin D2 receptor 2; conditions: cho-k1
Description: as §1

Liver microsomes = test: Metabolic stability in human liver microsomes; format: ADME, Microsome

Structure (SMILES) | pKa [1] | IC50 [2] | further results
COc1ccc2c(c1)c(-c1ccc(=O)n(Cc3ccccc3)n1)c(C)n2CC(=O)O | 4.07 | 104 nM | –
Cc1c(CC2=NN(Cc3ccc(F)cc3F)C(=O)CC2)c2cc(F)ccc2n1CC(=O)O | – | 4 nM | clearance [3]: 9 mL/min/kg; solubility (physchem): 954 µg/mL (≈ 2150 µM); bioavailability [4]: 41%; IC50 (Eosinophil): 8 nM; Cmax [5]: 1890 ng/mL; Vd [6]: 1.12 L/kg; fraction unbound (in vitro [7]): < 0.02; half-life [8]: 4 h
Cc1c(-c2ccc(=O)n(Cc3ccc(F)cc3F)n2)c2cc(F)ccc2n1CC(=O)O | – | 10 nM | Papp (in vitro [9]): 2.1 ×10⁻⁶ cm/s
Cc1c(Cc2ccc(=O)n(Cc3ccc(C(C)(C)O)cc3)n2)c2cc(F)ccc2n1CC(=O)O | – | 5 nM | IC50 (Eosinophil): 13 nM; fraction unbound (in vitro [7]): < 0.02
Cc1c(Cc2ccc(=O)n(Cc3ccncc3F)n2)c2cc(F)ccc2n1CC(=O)O | – | – | fraction unbound (in vitro [7]): < 0.02
Cc1c(Cc2ccc(=O)n(Cc3cc(F)c(F)cc3F)n2)c2cc(F)ccc2n1CC(=O)O | – | 0.8 nM | IC50 (Eosinophil): 10 nM; fraction unbound (in vitro [7]): < 0.02
Cc1c(Cc2ccc(=O)n(Cc3ccccc3)n2)c2cc(Cl)ccc2n1CC(=O)O | – | 15 nM | IC50 (Eosinophil): 15 nM; fraction unbound (in vitro [7]): < 0.02
Cc1c(Cc2ccc(=O)n(Cc3ccc(F)cc3F)n2)c2ccccc2n1CC(=O)O | – | – | fraction unbound (in vitro [7]): < 0.02
Cc1c(Cc2ccc(=O)n(Cc3ccncc3)n2)c2cc(F)ccc2n1CC(=O)O | – | 12 nM | IC50 (Eosinophil): 22 nM; fraction unbound (in vitro [7]): < 0.02
Cc1c(Cc2ccc(=O)n(Cc3ccc(C(F)(F)F)cc3)n2)c2cc(F)ccc2n1CC(=O)O | – | – | IC50 (Eosinophil): 55 nM; fraction unbound (in vitro [7]): < 0.02
Cc1c(Cc2ccc(=O)n(Cc3ccc(C(O)(C(F)(F)F)C(F)(F)F)cc3)n2)c2cc(F)ccc2n1CC(=O)O | – | – | IC50 (Eosinophil): 57 nM; fraction unbound (in vitro [7]): < 0.02
Cc1c(Cc2ccc(=O)n(Cc3ccccc3)n2)c2ccccc2n1CC(=O)O | – | – | IC50 (Eosinophil): 155 nM; fraction unbound (in vitro [7]): < 0.02
Cc1c(Cc2ccc(=O)n(Cc3ccc(F)cc3F)n2)c2cc(F)cc(F)c2n1CC(=O)O | – | – | IC50 (Eosinophil): 180 nM; fraction unbound (in vitro [7]): < 0.02
Cc1c(-c2ccc(=O)n(Cc3ccccc3)n2)c2cc(Cl)ccc2n1CC(=O)O | 4.03 | 28 nM | –
Cc1c(-c2ccc(=O)n(Cc3ccccc3)n2)c2cc(F)ccc2n1CC(=O)O | 4.02 | 23 nM | Papp (in vitro [9]): 0.5 ×10⁻⁶ cm/s
Cc1ccc2c(c1)c(-c1ccc(=O)n(Cc3ccccc3)n1)c(C)n2CC(=O)O | 4.16 | 34 nM | –
Cc1c(-c2ccc(=O)n(Cc3ccccc3)n2)c2cc(S(C)(=O)=O)ccc2n1CC(=O)O | 4 | 135 nM | –
Cc1c(-c2ccc(=O)n(Cc3ccccc3)n2)c2cccc(Br)c2n1CC(=O)O | 3.98 | – | –
Cc1c(-c2ccc(=O)n(Cc3ccccc3)n2)c2cc(Cl)cc(F)c2n1CC(=O)O | 3.86 | 90 nM | –
Cc1c(-c2ccc(=O)n(Cc3ccccc3)n2)c2cc(Cl)cc(Cl)c2n1CC(=O)O | 3.88 | 1690 nM | –
Cc1c(-c2ccc(=O)n(Cc3ccccc3)n2)c2cc(F)cc(F)c2n1CC(=O)O | 3.85 | 76 nM | –

Structure (SMILES) | pKa [1] | IC50 [2] | further results
Cc1c(-c2ccc(=O)n(Cc3ccccc3)n2)c2cc(F)cc(Cl)c2n1CC(=O)O | 3.86 | 245 nM | –
Cc1c(-c2ccc(=O)n(Cc3ccccc3)n2)c2cc(F)cc(S(C)(=O)=O)c2n1CC(=O)O | 3.83 | – | –
Cc1c(-c2ccc(=O)n(Cc3ccccc3)n2)c2cc(S(C)(=O)=O)cc(F)c2n1CC(=O)O | 3.83 | 934 nM | –
Cc1c(-c2nn(Cc3ccccc3)c(=O)c3ccccc23)c2cc(Cl)ccc2n1CC(=O)O | – | 11 nM | –
Cc1c(Cc2nn(Cc3ccccc3)c(=O)c3ccccc23)c2cc(Cl)ccc2n1CC(=O)O | – | 29 nM | –
Cc1c(-c2nn(Cc3ccccc3)c(=O)c3ccccc23)c2cc(F)ccc2n1CC(=O)O | – | 11 nM | –
Cc1c(C2=NN(Cc3ccccc3)C(=O)C3CCCCC23)c2cc(F)ccc2n1CC(=O)O (centres undefined) | – | 109 nM | –
Cc1c(Cc2ccc(=O)n(Cc3ccccc3)n2)c2cc(F)ccc2n1CC(=O)O | – | 9 nM | Papp (in vitro [9]): 4.3 ×10⁻⁶ cm/s
Cc1c(CC2=NN(Cc3ccccc3)C(=O)CC2)c2cc(F)ccc2n1CC(=O)O | – | 16 nM | bioavailability (in vivo [10]): 28%; Cmax (in vivo [11]): 484 ng/mL; IC50 (Eosinophil): 4 nM; inhibition in vivo at 3 mg/kg (Mus musculus): 34%; Vd (in vivo [12]): 1.7 L/kg; fraction unbound (in vitro [7]): < 0.02; half-life (in vivo [13]): 4.3 h; clearance (in vivo [14]): 13 mL/min/kg
Cc1c(-c2nn(CCOc3ccc(Cl)cc3)c(=O)c3ccccc23)c2cc(Cl)ccc2n1CC(=O)O | – | 2 nM | Papp [15]: 0.2 ×10⁻⁶ cm/s; clearance [16]: > 90 mL/min/kg; half-life [17]: 0.183 h; bioavailability [18]: < 1%
Cc1c(-c2ccc(=O)n(Cc3ccc(F)cc3)n2)c2cc(F)ccc2n1CC(=O)O | – | – | IC50 [19]: 20 nM; Papp [15]: 0.3 ×10⁻⁶ cm/s; clearance [16]: 6.9 mL/min/kg; half-life [17]: > 0.5 h; Stability (Liver microsomes): Stable; bioavailability [18]: 11%
Cc1c(-c2nn(Cc3ccccc3)c(=O)c3ccccc23)c2ccccc2n1CC(=O)O | – | 16 nM | –
Cc1c(-c2nn(Cc3ccccc3)c(=O)c3ccccc23)c2ccccc2n1CC(N)=O | – | > 1000 nM | –
Cc1c(-c2nn(Cc3ccccc3)c(=O)c3ccccc23)c2ccccc2n1CC(=O)N(C)C | – | > 1000 nM | –
Cc1c(-c2nn(Cc3ccccc3)c(=O)c3ccccc23)c2ccccc2n1CC(=O)N1CCCC1 | – | > 1000 nM | –
Cc1c(-c2nn(Cc3ccccc3)c(=O)c3ccccc23)c2ccccc2n1CC(=O)NS(C)(=O)=O | – | > 1000 nM | –
Cc1c(-c2nn(Cc3ccccc3)c(=O)c3ccccc23)c2ccccc2n1CCO | – | > 1000 nM | –
Cc1c(-c2nn(Cc3ccccc3)c(=O)c3ccccc23)c2ccccc2n1C(C)C(=O)O (centres undefined) | – | > 1000 nM | –
Cc1c(-c2nn(Cc3ccccc3)c(=O)c3ccccc23)c2ccccc2n1CCC(=O)O | – | > 1000 nM | –
Cc1c(-c2ccc(=O)n(Cc3ccccc3)n2)c2ccccc2n1CC(=O)O | 4.15 | 134 nM | –
Cc1c(-c2ccc(=O)n(Cc3ccccc3)n2)c2cc(Br)ccc2n1CC(=O)O | 4.03 | 16 nM | –
